Experimental data published in patent publication US6770442B2, “Methods for modulating the solubility of synthetic polymers” (Boston Probes, Inc., priority 1998, dated 2004).

Legend:
[1] = Solubility of labeled PNA oligomer in aqueous buffer
[2] = UV Tm analysis of unimolecular PNA hairpins (9 bp stem duplex); format: physicochemical; details: for cooperativity of sigmoidal melting transition (normalized absorbance vs. temperature): each probe at [1], FIG. 11
Protocol: The five Tm Samples of a dilution series of a particular unimolecular probe to be analyzed were simultaneously examined using a Cary 100 Bio UV-Visible Spectrophotometer (Varian Instruments) equipped with a 6×6 thermostatable multicell block running Win UV Bio application software package. To a 10×10 UV cell (Starna Cells, P/N 21-Q-10) was added a 7.2 mm stir bar and the 2.5 mL of each sample of the dilution series. The stirring accessory was used during all analysis. All samples were thermally denatured and reannealed prior to data collection by having the instrument rapidly ramp the temperature to a point above the melting temperature and then holding that temperature for 5-10 minutes before returning to the starting temperature. The temperature range over which data was collected was varied in response to the expected Tm which was roughly determined during the premelt and prereannealing step. Regardless of the temperature range, the temperature ramp rate for both melting “M” and reannealing “R” was always 0.5°C./min. The absorbance (260 nm, averaged over a 3 second collection) was plotted vs. the temperature of the multicell block.
After the Tm analysis was performed in Tm Buffer, to each cell was added 0.5 μL of 5M MgCl2 to thereby prepare a sample containing 1 mM MgCl2. The dilution effect was considered to be negligible. The Tm analysis was then performed again to determine whether the presence of MgCl2 had any; effect on the Tm of the unimolecular probe.
After the Tm analysis was performed in Tm Buffer and 1 mM MgCl2, to each cell was added 42 μL of saturated NaCl (approximately 6.11 M/L). The dilution effect was again considered to be negligible. The Tm analysis was then performed again to determine whether the presence of approximately 100 mM NaCl had any effect on the Tm of the unimolecular probe.

[3] = [1] approx. 7.5 μM, Buf, Mg & Na: Tm Buffer, 1 mM MgCl2 and 100 mM NaCl
[4] = [1] approx. 7.5 μM, Buf, Mg: Tm Buffer and 1 mM MgCl2
[5] = [2] approx. 3.75 μM, Buf, Mg & Na: Tm Buffer, 1 mM MgCl2 and 100 mM NaCl
[6] = [2] approx. 3.75 μM, Buf, Mg: Tm Buffer and 1 mM MgCl2
[7] = [2] approx. 3.75 μM, Buf: Tm Buffer
[8] = [3] approx. 1.87 μM, Buf, Mg & Na: Tm Buffer, 1 mM MgCl2 and 100 mM NaCl
[9] = [3] approx. 1.87 μM, Buf, Mg: Tm Buffer and 1 mM MgCl2
[10] = [3] approx. 1.87 μM, Buf: Tm Buffer
[11] = [4] approx. 0.94 μM, Buf, Mg & Na: Tm Buffer, 1 mM MgCl2 and 100 mM NaCl
[12] = [4] approx. 0.94 μM, Buf, Mg: Tm Buffer and 1 mM MgCl2
[13] = [4] approx. 0.94 μM, Buf: Tm Buffer
[14] = [5] approx. 0.468 μM, Buf, Mg & Na: Tm Buffer, 1 mM MgCl2 and 100 mM NaCl
[15] = [5] approx. 0.468 μM, Buf, Mg: Tm Buffer and 1 mM MgCl2
[16] = [5] approx. 0.468 μM, Buf: Tm Buffer

Tm, melting M [2, 3]	Tm, reannealing R [2, 3]	Tm, melting M [2, 4]	Tm, reannealing R [2, 4]	Tm, melting M [2, 5]	Tm, melting M [2, 6]	Tm, reannealing R [2, 6]	Tm, melting M [2, 7]	Tm, reannealing R [2, 7]	Tm, melting M [2, 8]	Tm, melting M [2, 9]	Tm, reannealing R [2, 9]	Tm, melting M [2, 10]	Tm, reannealing R [2, 10]	Tm, melting M [2, 11]	Tm, reannealing R [2, 11]	Tm, melting M [2, 12]	Tm, melting M [2, 13]	Tm, reannealing R [2, 13]	Tm, melting M [2, 14]	Substance	further results
82.6 °C	81.8 °C	81.6 °C	81.0 °C	82.6 °C	81.6 °C	81.5 °C	81.6 °C	81.4 °C	82.6 °C	82.0 °C	81.5 °C	82.1 °C	81.5 °C	82.5 °C	82.5 °C	82.0 °C	82.0 °C	81.5 °C	83.0 °C	Flu-OEE-ATA-TAT-TGG-CTG-ATC-CAA-TAT-AT-EE-K(dabcyl)-NH2 [P4]	concentration up to which completely soluble [1]: ≥ 7.5 μM/L; Tm, reannealing R [2, 5]: 82.4 °C; Tm, reannealing R [2, 8]: 82.5 °C; Tm, reannealing R [2, 12]: 81.1 °C; Tm, reannealing R [2, 14]: 82.1 °C; Tm, melting M [2, 15]: 82.0 °C; Tm, reannealing R [2, 15]: 81.6 °C; Tm, melting M [2, 16]: 81.5 °C; Tm, reannealing R [2, 16]: 81.1 °C
80.6 °C	80.4 °C	80.6 °C	80.3 °C	81.5 °C	81.1 °C	80.4 °C	81.1 °C	81.0 °C	81.0 °C	81.1 °C	80.4 °C	82.0 °C	81.0 °C	81.5 °C	80.5 °C	80.5 °C	81.5 °C	81.5 °C	82.1 °C	H-ATA-TAT-TGG-CTG-ATC-CAA-TAT-AT-KK-NH2 [PNAD, reference compound]	Tm, reannealing R [2, 8]: 81.4 °C; Tm, reannealing R [2, 12]: 81.0 °C; Tm, reannealing R [2, 14]: 80.6 °C; Tm, melting M [2, 15]: 80.5 °C; Tm, reannealing R [2, 15]: 80.5 °C; Tm, melting M [2, 16]: 81.5 °C; Tm, reannealing R [2, 16]: 81.1 °C; cooperativity of sigmoidal melting transition (normalized absorbance vs. temperature) [2]: least cooperative sigmoidal transition
82.1 °C	82.3 °C	81.6 °C	81.3 °C	82.1 °C	81.6 °C	81.3 °C	82.1 °C	81.5 °C	82.5 °C	82.1 °C	81.4 °C	82.1 °C	81.5 °C	82.0 °C	82.0 °C	82.0 °C	82.5 °C	81.1 °C	84.0 °C	H-OEE-ATA-TAT-TGG-CTG-ATC-CAA-TAT-AT-EEK-NH2 [P4N]	Tm, reannealing R [2, 5]: 82.3 °C; Tm, reannealing R [2, 14]: 81.6 °C; Tm, melting M [2, 15]: 82.0 °C; Tm, reannealing R [2, 15]: 81.1 °C; Tm, melting M [2, 16]: 82.0 °C; Tm, reannealing R [2, 16]: 80.1 °C; cooperativity of sigmoidal melting transition (normalized absorbance vs. temperature) [2]: only a slightly less cooperative a transition as compared with probe P3N
83.1 °C	82.9 °C	83.1 °C	82.4 °C	83.1 °C	83.1 °C	81.9 °C	82.5 °C	82.4 °C	83.5 °C	83.0 °C	82.5 °C	83.0 °C	82.4 °C	83.5 °C	83.0 °C	83.0 °C	83.0 °C	82.5 °C	83.5 °C	H-OEE-ATA-TAT-TGG-OO-CCA-ATA-TAT-EEK-NH2 [P3N]	Tm, reannealing R [2, 5]: 81.4 °C; Tm, reannealing R [2, 8]: 82.9 °C; Tm, reannealing R [2, 12]: 83.1 °C; Tm, reannealing R [2, 14]: 83.1 °C; Tm, melting M [2, 15]: 83.0 °C; Tm, reannealing R [2, 15]: 82.6 °C; Tm, melting M [2, 16]: 83.0 °C; Tm, reannealing R [2, 16]: 82.6 °C; cooperativity of sigmoidal melting transition (normalized absorbance vs. temperature) [2]: most cooperative sigmoidal transition
